{
  "source": "patent US20190002436A1",
  "about": "“RESPIRATORY SYNCYTIAL VIRUS INHIBITORS” (MEDIVIR AB, priority 2015, published 2019)",
  "note": "pEC50: −log10 of the molar value.",
  "data": [
    {"tested_on": "RSV (Long)", "assay": "RSV cytopathic effect (CPE)-based viral replication assay", "assay_type": "cell-based, respiratory syncytial virus (RSV)", "settings": "HEp-2 cells infected with RSV Long at MOI 0.015; 3 days at 37° C.; cell viability by CellTiter-Glo luminescence; read-out: EC50 (nm)", "procedure": "(§1) Example A: RSV Cytopathic Effect\n(§2) Compounds of the invention are initially tested in a cytopathic effect (CPE)-based viral replication assay using immortalized cells and a laboratory strain of RSV (Long). This assay evaluates the ability of a compound to inhibit viral replication.\n(§3) Assay plates are prepared by seeding 2,500 HEp-2 cells (ATCC) per well of a 384-well black clear-bottom plate (Greiner Bio-One) in 20 μL of assay media (defined as DMEM supplemented with 2% heat-inactivated fetal bovine serum and 1% Penicillin/Streptomycin). Assay plates are incubated overnight at 37° C. in an incubator containing 5% CO2. The following day, a 10-point serial dilution of test compound is prepared in DMSO. Compounds are subsequently diluted with assay media and 20 μL of diluted compound (containing 1.5% DMSO) is transferred to an assay plate for evaluation of antiviral activity.\n(§4) For the CPE assay, cells are infected at a Multiplicity of Infection (MOI) of 0.015 using 20 μL of RSV Long (ATCC) diluted in assay media. The DMSO concentration is constant throughout the assay plate, including the negative and positive controls. The assay plate is incubated for 3 days at 37° C. in an incubator containing 5% CO2. Cell viability is evaluated with the addition of 10 μL of CellTiter-Glo (ProMega). Luminescence is measured using an EnVision plate reader (Perkin Elmer). EC50 values are calculated using the raw data from the CPE assays.", "values": [
      {"compound": "CS(=O)(=O)N1CC2(C1)C(=O)N(Cc1ncc3ccccc3c1CF)c1ccccc12", "note": "[Example 59]", "pEC50": 8.24}
    ]},
    {"tested_on": "RSV (Long)", "assay": "RSV cytopathic effect (CPE)-based viral replication assay", "assay_type": "cell-based, respiratory syncytial virus (RSV)", "settings": "human respiratory syncytial virus, HEp-2, 72 h, HEp-2 cells infected with RSV Long at MOI 0.015; 3 days at 37° C.; cell viability by CellTiter-Glo luminescence; read-out: EC50 (nm)", "procedure": "as §1, §2, §3, §4", "values": [
      {"compound": "O=C(C1CCNCC1)N1CCC2(CC1)C(=O)N(Cc1ncc3ccccc3c1-c1cccnc1)c1cnccc12", "note": "[Example 140, 1-(piperidine-4-carbonyl)-1′-((4-(pyridin-3-yl)isoquinolin-3-yl)methyl)spiro[piperidine-4,3′-pyrrolo[2,3-c]pyridin]-2′(1′H)-one]", "pEC50": 8.47},
      {"compound": "NC1(C(=O)N2CCC3(CC2)C(=O)N(Cc2ncc4ccccc4c2-c2cccnc2)c2cnccc23)CC1", "note": "[Example 137]", "pEC50": 8.27},
      {"compound": "CC(C)(C)NC(=O)N1CC2(C1)C(=O)N(Cc1ncc3ccccc3c1-c1ccc(C#N)nc1)c1ccccc12", "note": "[Example 81]", "pEC50": 8.85},
      {"compound": "COC(=O)N1CC2(C1)C(=O)N(Cc1ncc3cc(Cl)ccc3c1-c1cccnc1)c1cnccc12", "note": "[Example 161c, methyl 1′-((7-chloro-4-(pyridin-3-yl)isoquinolin-3-yl)methyl)-2′-oxo-1′,2′-dihydrospiro[azetidine-3,3′-pyrrolo[2,3-c]pyridine]-1-carboxylate]", "pEC50": 8.54},
      {"compound": "COC(=O)N1CC2(C1)C(=O)N(Cc1nc(C(F)F)c3ccccc3c1-c1cccnc1)c1ccccc12", "note": "[Example 2003]", "pEC50": 6.00},
      {"compound": "NC(c1ccc(-c2c(CN3C(=O)C4(CCN(C(=O)C5(N)CC5)CC4)c4ccncc43)ncc3ccccc23)cn1)C(F)(F)F", "note": "(centres unmarked) [Example 2042]", "pEC50": 7.66},
      {"compound": "CNC1(C(=O)N2CCC3(CC2)C(=O)N(Cc2ncc4ccccc4c2-c2ccc(F)nc2)c2cnccc23)CC1", "note": "[Example 111c, 1′-((4-(6-fluoropyridin-3-yl)isoquinolin-3-yl)methyl)-1-(1-(methylamino)cyclopropanecarbonyl)spiro[piperidine-4,3′-pyrrolo[2,3-c]pyridin-]2′(1′H)-one]", "pEC50": 8.85},
      {"compound": "NC1(CNC(=O)N2CC3(C2)C(=O)N(Cc2ncc4ccccc4c2-c2cncc(F)c2)c2ccccc23)CC1", "note": "[Example 2004]", "pEC50": 8.52},
      {"compound": "COC(=O)N1CCC2(CC1)C(=O)N(Cc1ncc3ccccc3c1CCCCO)c1cnccc12", "note": "[Example 21b, Methyl 1′-((4-(4-hydroxybutyl)isoquinolin-3-yl)methyl)-2′-oxo-1′,2′-dihydrospiro[piperidine-4,3′-pyrrolo[2,3-c]pyridine]-1-carboxylate]", "pEC50": 8.19},
      {"compound": "CNC1(C(=O)N2CCC3(CC2)C(=O)N(Cc2ncc4ccccc4c2-c2ccc(C(N)=O)nc2)c2cnccc23)CC1", "note": "[Example 108b, 5-(3-((1-(1-(Methylamino)cyclopropanecarbonyl)-2′-oxospiro[piperidine-4,3′-pyrrolo[2,3-c]pyridin]-1′(2′H)-yl)methyl)isoquinolin-4-yl)picolinamide]", "pEC50": 8.92},
      {"compound": "COC(=O)N1CCC(n2c(=O)n(Cc3ncc4ccccc4c3CCCCO)c3cncc(Cl)c32)CC1", "note": "[Example 15, Methyl 4-(7-chloro-3-((4-(4-hydroxybutyl)isoquinolin-3-yl)methyl)-2-oxo-2,3-dihydro-1H-imidazo[4,5-c]pyridin-1-yl)piperidine-1-carboxylate]", "pEC50": 8.66},
      {"compound": "CS(=O)(=O)N1CCC2(CC1)C(=O)N(Cc1ncc3ccccc3c1-c1cccnc1)c1cnccc12", "note": "[Example 136, 1-(methylsulfonyl)-1′-((4-(pyridin-3-yl)isoquinolin-3-yl)methyl)spiro[piperidine-4,3′-pyrrolo[2,3-c]pyridin]-2′(1′H)-one]", "pEC50": 9.10},
      {"compound": "CS(=O)(=O)N1CCC2(CC1)C(=O)N(Cc1ncc3cc(F)ccc3c1-c1cncs1)c1cnccc12", "note": "[Example 2010]", "pEC50": 8.82},
      {"compound": "COC(=O)N1CCC2(CC1)C(=O)N(Cc1ncc3ccccc3c1CCCS(C)(=O)=O)c1cnccc12", "note": "[Example 11c, Methyl 1′-((4-(3-(methylsulfonyl)propyl)isoquinolin-3-yl)methyl)-2′-oxo-1′,2′-dihydrospiro[piperidine-4,3′-pyrrolo[2,3-c]pyridine]-1-carboxylate]", "pEC50": 7.06},
      {"compound": "COC(=O)N1CCC2(CC1)C(=O)N(Cc1ncc3ccccc3c1-c1ccc(C#N)cc1)c1cnccc12", "note": "[Example 12b, Methyl 1′-((4-(4-cyanophenyl)isoquinolin-3-yl)methyl)-2′-oxo-1′,2′-dihydrospiro[piperidine-4,3′-pyrrolo[2,3-c]pyridine]-1-carboxylate]", "pEC50": 8.00},
      {"compound": "CC(C)(C)c1ccc(-c2c(Cn3c(=O)n(C4CC4)c4ccncc43)ncc3ccccc23)cc1", "note": "[Example 51d, 3-((4-(4-(tert-butyl)phenyl)isoquinolin-3-yl)methyl)-1-cyclopropyl-1H-imidazo[4,5-c]pyridin-2(3H)-one]", "pEC50": "< 9.00"},
      {"compound": "CS(=O)(=O)Nc1ccc(-c2c(CN3C(=O)C4(CN(C(=O)C5(N)CC5)C4)c4ccccc43)ncc3ccccc23)cc1", "note": "[Example 114c, N-(4-(3-((1-(1-aminocyclopropanecarbonyl)-2′-oxospiro[azetidine-3,3′-indolin]-1′-yl)methyl)isoquinolin-4-yl)phenyl)methanesulfonamide]", "pEC50": 8.26},
      {"compound": "NC1(CC(=O)N2CC3(C2)C(=O)N(Cc2ncc4ccccc4c2-c2cccnc2)c2ccccc23)CC1", "note": "[Example 156, 1-(2-(1-aminocyclopropyl)acetyl)-1′-((4-(pyridin-3-yl)isoquinolin-3-yl)methyl)spiro[azetidine-3,3′-indolin]-2′-one]", "pEC50": 7.89},
      {"compound": "NC(C(=O)N1CCC2(CC1)C(=O)N(Cc1ncc3ccccc3c1-c1cncs1)c1cnccc12)C(F)(F)F", "note": "(centres unmarked) [Example 2040]", "pEC50": 8.72},
      {"compound": "NCC(=O)N1CCC2(CC1)C(=O)N(Cc1ncc3ccccc3c1-c1cccnc1)c1cnccc12", "note": "[Example 143, 1-(2-aminoacetyl)-1′-((4-(pyridin-3-yl)isoquinolin-3-yl)methyl)spiro[piperidine-4,3′-pyrrolo[2,3-c]pyridin]-2′(1′H)-one]", "pEC50": 8.00},
      {"compound": "N#Cc1ccc(-c2c(CN3C(=O)C4(CCN(C(=O)C5(N)CC5)CC4)c4ccncc43)ncc3ccccc23)cn1", "note": "[Example 65, 5-(3-((1-(1-aminocyclopropanecarbonyl)-2′-oxospiro[piperidine-4,3′-pyrrolo[2,3-c]pyridin]-1′(2′H)-yl)methyl)isoquinolin-4-yl)picolinonitrile]", "pEC50": 8.19},
      {"compound": "CC1(n2c(=O)n(Cc3ncc4ccccc4c3CCCCO)c3cnccc32)CC1", "note": "[Example 52b, 3-((4-(4-hydroxybutyl)isoquinolin-3-yl)methyl)-1-(1-methylcyclopropyl)-1H-imidazo[4,5-c]pyridin-2(3H)-one]", "pEC50": 8.59},
      {"compound": "NCc1ccc2c(CCCCO)c(Cn3c(=O)n(C4CC4)c4ccncc43)ncc2c1", "note": "[Example 26, 3-((7-(Aminomethyl)-4-(4-hydroxybutyl)isoquinolin-3-yl)methyl)-1-cyclopropyl-1H-imidazo[4,5-c]pyridin-2(3H)-one]", "pEC50": 8.23},
      {"compound": "CS(=O)(=O)N1CC2(C1)C(=O)N(Cc1ncc3ccccc3c1-c1ccc(F)c(F)c1)c1ccccc12", "note": "[Example 75]", "pEC50": 8.15},
      {"compound": "NCCCC(=O)N1CCC2(CC1)C(=O)N(Cc1ncc3ccccc3c1-c1cccnc1)c1cnccc12", "note": "[Example 142, 1-(4-aminobutanoyl)-1′-((4-(pyridin-3-yl)isoquinolin-3-yl)methyl)spiro[piperidine-4,3′-pyrrolo[2,3-c]pyridin]-2′(1′H)-one]", "pEC50": 8.24},
      {"compound": "COC(=O)N1CCC(n2c(=O)n(Cc3ncc4ccccc4c3CCCC(F)(F)F)c3cnccc32)CC1", "note": "[Example 9b, methyl 4-(2-oxo-3-((4-(4,4,4-trifluorobutyl)isoquinolin-3-yl)methyl)-2,3-dihydro-1H-imidazo[4,5-c]pyridin-1-yl)piperidine-1-carboxylate]", "pEC50": 8.40},
      {"compound": "CN(C)C(=O)c1ccc(-c2c(CN3C(=O)C4(CCN(C(=O)C5(N(C)C)CC5)CC4)c4ccncc43)ncc3ccccc23)cn1", "note": "[Example 119b, 5-(3-((1-(1-(dimethylamino)cyclopropanecarbonyl)-2′-oxospiro[piperidine-4,3′-pyrrolo[2,3-c]pyridin]-1′(2′H)-yl)methyl)isoquinolin-4-yl)-N,N-dimethylpicolinamide]", "pEC50": 8.55},
      {"compound": "COC(=O)N1CC2(C1)C(=O)N(Cc1ncc3ccccc3c1-c1ccc(NS(C)(=O)=O)nc1)c1ccccc12", "note": "[Example 134b, Methyl 1′-((4-(6-(methylsulfonamido)pyridin-3-yl)isoquinolin-3-yl)methyl)-2′-oxospiro[azetidine-3,3′-indoline]-1-carboxylate]", "pEC50": 9.26},
      {"compound": "CC(C)(O)C(=O)N1CC2(C1)C(=O)N(Cc1ncc3ccccc3c1-c1cccnc1)c1ccccc12", "note": "[Example 118, 1-(2-hydroxy-2-methylpropanoyl)-1′-((4-(pyridin-3-yl)isoquinolin-3-yl)methyl)spiro[azetidine-3,3′-indolin]-2′-one]", "pEC50": 8.42},
      {"compound": "NC1(C(=O)N2CCC3(CC2)C(=O)N(Cc2ncc4ccccc4c2-c2nccs2)c2cnccc23)CC1", "note": "[Example 2012]", "pEC50": 6.42}
    ]},
    {"tested_on": "RSV (Long)", "assay": "RSV cytopathic effect (CPE)-based viral replication assay", "assay_type": "cell-based, respiratory syncytial virus (RSV)", "settings": "human respiratory syncytial virus, HEp-2, 72 h, read-out: EC50 (nm)", "procedure": "as §1, §2, §3, §4", "values": [
      {"compound": "COC(=O)N1CC2(C1)C(=O)N(Cc1ncc3ccccc3c1-c1ccc(C#N)c(F)c1)c1ccccc12", "note": "[Example 93, Methyl 1′-((4-(4-cyano-3-fluorophenyl)isoquinolin-3-yl)methyl)-2′-oxospiro[azetidine-3,3′-indoline]-1-carboxylate]", "pEC50": 8.36}
    ]}
  ]
}
